This note sets out measurements from ChEMBL document CHEMBL5042500 (J Med Chem, 2022).

Molecules are shown by their SMILES. Values after ≈ are worked out from the molar mass of the structure shown. Where only a bound is given, the exact number is not on record here.

The nature of data set [1]: Photostability of compound. The format is physicochemical.
Data set [2] concerns the target T1, Serine/threonine-protein kinase Sgk1 (Homo sapiens, UniProt O00141).
T1 sequence (O00141 whole entry): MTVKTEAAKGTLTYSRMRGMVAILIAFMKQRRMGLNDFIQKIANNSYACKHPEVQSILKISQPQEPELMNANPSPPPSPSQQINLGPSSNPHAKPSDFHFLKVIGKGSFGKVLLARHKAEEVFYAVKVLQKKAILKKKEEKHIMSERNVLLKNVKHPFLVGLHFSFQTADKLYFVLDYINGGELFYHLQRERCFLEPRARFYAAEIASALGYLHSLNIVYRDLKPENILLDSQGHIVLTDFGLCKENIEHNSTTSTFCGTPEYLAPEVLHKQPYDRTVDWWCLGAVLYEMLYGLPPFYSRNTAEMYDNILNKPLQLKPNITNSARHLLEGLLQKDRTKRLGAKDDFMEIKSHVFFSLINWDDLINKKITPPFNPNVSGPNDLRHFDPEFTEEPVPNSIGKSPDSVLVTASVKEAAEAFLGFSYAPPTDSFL
The data set can be described thus: Inhibition of recombinant human SGK1 expressed in baculovirus expression system using 5-carboxyfluorescein -RPRAATF-NH2 as substrate preincubated for 30 mins followed by substrate addition in presence of 500 uM ATP and measured after 60 mins by microfluidics assay.

In data set [3] the target is T1, Serine/threonine-protein kinase Sgk1. The data set can be described thus: Inhibition of recombinant human SGK1 expressed in baculovirus expression system using 5-carboxyfluorescein -RPRAATF-NH2 as substrate preincubated for 30 mins followed by substrate addition in presence of 10 uM ATP and measured after 60 mins by microfluidics assay.
In data set [4] the target is T2, hERG (KCNH2) (Homo sapiens, UniProt Q12809). Put plainly: Inhibition of human ERG at 10 uM. The format is toxicity.
T2 sequence (Q12809 whole entry): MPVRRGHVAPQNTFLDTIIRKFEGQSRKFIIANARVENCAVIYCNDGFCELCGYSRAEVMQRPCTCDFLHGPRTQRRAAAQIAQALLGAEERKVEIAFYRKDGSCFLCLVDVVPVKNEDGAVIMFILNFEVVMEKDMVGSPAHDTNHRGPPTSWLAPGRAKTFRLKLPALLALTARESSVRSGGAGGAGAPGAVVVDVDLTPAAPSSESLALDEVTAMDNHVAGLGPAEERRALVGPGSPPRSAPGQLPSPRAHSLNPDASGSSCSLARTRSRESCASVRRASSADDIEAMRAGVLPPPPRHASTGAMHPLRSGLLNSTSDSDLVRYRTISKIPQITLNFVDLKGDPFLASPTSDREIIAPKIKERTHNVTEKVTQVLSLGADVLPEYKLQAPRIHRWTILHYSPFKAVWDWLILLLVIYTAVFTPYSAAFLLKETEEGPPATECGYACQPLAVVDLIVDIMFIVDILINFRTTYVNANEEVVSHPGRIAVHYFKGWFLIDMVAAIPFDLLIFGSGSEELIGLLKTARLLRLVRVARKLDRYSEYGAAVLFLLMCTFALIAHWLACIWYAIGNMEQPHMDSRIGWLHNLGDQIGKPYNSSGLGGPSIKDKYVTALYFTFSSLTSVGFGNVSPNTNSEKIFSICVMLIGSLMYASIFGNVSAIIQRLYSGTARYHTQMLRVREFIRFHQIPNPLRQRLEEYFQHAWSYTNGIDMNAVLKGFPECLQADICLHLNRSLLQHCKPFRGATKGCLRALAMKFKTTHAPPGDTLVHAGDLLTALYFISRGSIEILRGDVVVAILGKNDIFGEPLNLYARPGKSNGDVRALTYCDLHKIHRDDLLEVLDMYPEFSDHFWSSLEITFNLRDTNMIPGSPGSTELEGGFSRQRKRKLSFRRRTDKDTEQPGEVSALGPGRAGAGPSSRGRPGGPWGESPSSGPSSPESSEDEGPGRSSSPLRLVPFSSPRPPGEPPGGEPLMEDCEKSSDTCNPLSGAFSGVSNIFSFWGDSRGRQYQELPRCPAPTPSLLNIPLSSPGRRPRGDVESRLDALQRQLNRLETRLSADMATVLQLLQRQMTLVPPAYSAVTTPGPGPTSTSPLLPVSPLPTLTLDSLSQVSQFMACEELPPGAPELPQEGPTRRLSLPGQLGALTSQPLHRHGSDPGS
Data set [5] can be described thus: Intrinsic clearance in human hepatocytes assessed per 10^-6 cells. The format is ADME, cell-based, Hepatocyte.
Data set [6] can be described thus: Distribution coefficient, logD of compound at pH 7.4 by chromatographic analysis. Particulars: octanol/water. Type of data set: physicochemical.
Data set [7] can be described thus: Chemical stability of the compound at pH 7.4 measured after 24 hrs. Particulars: buffer, read-out: Stability. The format is physicochemical.
Data set [8] can be described thus: Metabolic stability in Sprague-Dawley rat liver microsomes assessed as compound degradation in presence of NADPH measured after 20 mins. The format is ADME, Microsome. Particulars: read-out: Drug degradation. A general note: Liver microsomes are a subcellular fraction often used to study metabolism.
A short description of data set [9]: Effect on chondrocyte hypertrophic differentiation mouse ATDC-5 cells assessed as inhibition of […] gene expression incubated for 2 weeks followed by compound added and every 3 days medium is changed measured after 2 weeks by RT-qPCR analysis. Type of data set: functional, cell-based.
The target in data set [10] is T3, Cytochrome P450 3A4 (Homo sapiens, UniProt P08684). The data set can be described thus: Inhibition of CYP3A4 in human liver microsomes using midazolam as substrate incubated for 10 mins by LC-MS/MS analysis. Type of data set: ADME.
T3 sequence (P08684 whole entry): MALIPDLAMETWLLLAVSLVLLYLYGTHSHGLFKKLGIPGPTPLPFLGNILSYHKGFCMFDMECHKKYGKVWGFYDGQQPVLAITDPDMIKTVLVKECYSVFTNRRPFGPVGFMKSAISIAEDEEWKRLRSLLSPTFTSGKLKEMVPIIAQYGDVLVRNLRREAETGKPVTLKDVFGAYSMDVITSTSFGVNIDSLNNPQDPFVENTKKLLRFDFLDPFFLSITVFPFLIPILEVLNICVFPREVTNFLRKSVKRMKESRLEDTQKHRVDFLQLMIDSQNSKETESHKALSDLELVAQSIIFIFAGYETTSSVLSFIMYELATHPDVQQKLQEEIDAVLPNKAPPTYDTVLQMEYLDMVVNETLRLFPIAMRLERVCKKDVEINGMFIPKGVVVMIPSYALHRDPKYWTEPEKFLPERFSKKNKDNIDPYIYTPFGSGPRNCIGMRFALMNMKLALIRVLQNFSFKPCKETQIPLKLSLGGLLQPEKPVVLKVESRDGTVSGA
The nature of data set [11]: Aqueous solubility of the compound at pH 7.4. Type of data set: physicochemical.
For data set [12], the target named is T2, hERG (KCNH2). Put plainly: Inhibition of human ERG at 1 uM relative to control. Type of data set: toxicity.
Data set [13] can be described thus: Metabolic stability in CD1 mouse liver microsomes assessed as compound degradation in presence of NADPH measured after 20 mins. Type of data set: ADME, Microsome. To be noted: read-out: Drug degradation.
Data set [14] concerns Salmonella typhimurium. Put plainly: Mutagenicity in Salmonella typhimurium […] in presence of S9 fraction by ames test. The format is toxicity, organism-based. To be noted: salmonella enterica subsp. enterica serovar typhimurium.
In data set [15] the test system is Salmonella typhimurium. The data set can be described thus: Mutagenicity in Salmonella typhimurium […] by ames test. Type of data set: toxicity, organism-based. Particulars: salmonella enterica subsp. enterica serovar typhimurium.
The nature of data set [16]: Permeability in human Caco2 cells at 20 uM incubated for 120 mins by ESI-MS/MS analysis. Particulars: Caco-2, read-out: permeability. The format is ADME, cell-based.
Data set [17] can be described thus: Metabolic stability in human liver microsomes assessed as compound degradation in presence of NADPH measured after 20 mins. The format is ADME, Microsome. To be noted: read-out: Drug degradation.
A further data set deals with CYP3A4 (Homo sapiens, UniProt P08684). Put plainly: Inhibition of CYP3A4 in human liver microsomes by measuring maximum efficacy. Type of data set: ADME.
Chain of CYP3A4 (P08684 whole entry): as above
In data set [18] the target is T3, Cytochrome P450 3A4. Put plainly: Inhibition of CYP3A4 in human liver microsomes using testosterone as substrate incubated for 30 mins by LC-MS/MS analysis. The format is ADME.
Data set [19] can be described thus: Solubility of the compound in FeSSIF at pH 5.0. Type of data set: physicochemical.

A word on the IC50: it is the concentration that inhibits the measured activity by half. As usually defined, the inhibition is how much of the control response was suppressed. High values mean a response far below the control, low ones a response near the control. One may read the chromatographic logD as lipophilicity estimated from chromatographic retention. High values mean higher lipophilicity, low ones lower lipophilicity. The term solubility denotes how much of the substance goes into solution per volume. The Emax is the maximal effect, on the per cent scale that the assay sets.

Molecule `Nc1n[nH]c2nc(-c3ccc(NS(=O)(=O)c4cc(Cl)ccc4F)cc3)ccc12` came in with a Stability in data set [1] of 91.7%.
On the same count and under the same terms, for `Nc1n[nH]c2nc(-c3ccc(NS(=O)(=O)c4cc(Cl)c(F)cc4F)cc3)ncc12` the value was 98.6%; for `Nc1n[nH]c2nc(-c3ccc(NS(=O)(=O)c4cccc(Cl)c4F)cc3)ccc12`, 87.2%.
As for `CCNC(=O)c1cc(-c2ccc(NS(=O)(=O)c3cccc(Cl)c3Cl)cc2)nc2[nH]ncc12`, the IC50 in data set [2] is under 1920 nM; in [3], 6 nM.
The corresponding values for `O=C(NCc1ncc[nH]1)c1cc(-c2ccc(NS(=O)(=O)c3cccc(Cl)c3Cl)cc2)nc2[nH]ncc12` are 128 nM and under 1 nM.
As to `CC(C)NC(=O)c1cc(-c2ccc(NS(=O)(=O)c3cccc(Cl)c3Cl)cc2)nc2[nH]ncc12`, the IC50 is 17600 nM in data set [2] and 68 nM in [3].
The corresponding values for `CN1CC(NC(=O)c2cc(-c3ccc(NS(=O)(=O)c4cccc(Cl)c4Cl)cc3)nc3[nH]ncc23)C1` are under 1 nM and under 1 nM.
For the molecule `O=C(NCCc1cc[nH]n1)c1cc(-c2ccc(NS(=O)(=O)c3cccc(Cl)c3Cl)cc2)nc2[nH]ncc12`, the IC50 was found to be 246 nM in [2] and 10 nM in data set [3].
The matching figures for `O=C(NCCn1cnnc1)c1cc(-c2ccc(NS(=O)(=O)c3cccc(Cl)c3Cl)cc2)nc2[nH]ncc12`: 609 nM and 3 nM.
The matching figures for `COCCN1CCC(Oc2nc(-c3ccc(NS(=O)(=O)c4cc(Cl)ccc4F)cc3)nc3[nH]nc(C)c23)CC1`: 5 nM and 3 nM.
The matching figures for `CNC(=O)c1cc(-c2ccc(NS(=O)(=O)c3cccc(Cl)c3Cl)cc2)nc2[nH]ncc12`: 929 nM and 4 nM.
Regarding `Nc1n[nH]c2nc(-c3ccc(NS(=O)(=O)c4cc(Cl)ccc4F)cc3)ncc12`, the Stability in data set [1] worked out at 99.3%.
Turning to `CC(C)N1CC[C@H](NC(=O)c2cc(-c3ccc(NS(=O)(=O)c4cccc(Cl)c4Cl)cc3)nc3[nH]ncc23)C1`, the IC50 was determined as 38 nM in data set [2] and 4 nM in [3].
For `Cc1n[nH]c2nc(-c3ccc(NS(=O)(=O)c4cc(Cl)ccc4F)cc3)nc(OC3CCNCC3F)c12` (stereo not given), the IC50 in data set [2] and in data set [3] was 1 nM each time.
On to `NC(=O)c1cc(-c2ccc(NS(=O)(=O)c3cccc(Cl)c3Cl)cc2)nc2[nH]ncc12`, for which the results for the IC50 in data set [2] and in data set [3] were 236 nM and 1 nM, respectively.
On to `Nc1n[nH]c2nc(-c3ccc(NS(=O)(=O)c4ccccc4Cl)cc3)ccc12`, for which the Stability in data set [1] came to 46.1%.
For `Cc1n[nH]c2nc(-c3ccc(NS(=O)(=O)c4cc(Cl)ccc4F)cc3)nc(OC3CCNCC3(F)F)c12` (stereo not given), the IC50 in data set [2] and in data set [3] was 1 nM throughout.
On to `Cc1n[nH]c2nc(-c3ccc(NS(=O)(=O)c4cc(Cl)ccc4F)cc3)nc(OC3CC(C)(C)NC(C)(C)C3)c12`, for which the values for the IC50 in data set [2] and in data set [3] were 4 nM and 3 nM, respectively.
The corresponding values for `CN(CCO)C(=O)c1cc(-c2ccc(NS(=O)(=O)c3cccc(Cl)c3Cl)cc2)nc2[nH]ncc12` are 24 nM and under 1 nM.
The corresponding values for `CN1CCC(NC(=O)c2cc(-c3ccc(NS(=O)(=O)c4cccc(Cl)c4Cl)cc3)nc3[nH]ncc23)C1` (racemic) are 21 nM and under 1 nM.
Take `Nc1n[nH]c2nc(-c3ccc(NS(=O)(=O)c4c(F)cc(F)cc4F)cc3)ccc12`: the Stability in data set [1] stood at 97.4%.
As to `Cc1n[nH]c2nc(-c3ccc(NS(=O)(=O)c4cc(Cl)ccc4F)cc3)nc(OCCCN)c12`, the IC50 in data set [2] and in data set [3] was under 2 nM each time.
On to `Cc1n[nH]c2nc(-c3ccc(NS(=O)(=O)c4cc(Cl)ccc4F)cc3)nc(OCC3CN(C(C)C)C3)c12`, for which the IC50 in data set [2] and in [3] was 1 nM throughout.
With `O=C(NC1CCN(CCO)C1)c1cc(-c2ccc(NS(=O)(=O)c3cccc(Cl)c3Cl)cc2)nc2[nH]ncc12` (racemic), the values for the IC50 in data set [2] and in data set [3] were 12 nM and 1 nM, respectively.
As to `Nc1n[nH]c2nc(-c3ccc(NS(=O)(=O)c4cccc(Cl)c4Cl)cc3)ccc12`, the Stability in [1] was 10.1%.
Regarding `Cc1n[nH]c2nc(-c3ccc(NS(=O)(=O)c4cc(Cl)ccc4F)cc3)nc(OCCCO)c12`, the IC50 in data set [2] was 10 nM; in data set [3] it was 2 nM.
As to `CCOc1nc(-c2ccc(NS(=O)(=O)c3cc(Cl)ccc3F)cc2)nc2[nH]nc(C)c12`, the IC50 in data set [2] worked out at 183 nM; in data set [3] it was 23 nM.
The matching figures for `CCN1CCC(CNC(=O)c2cc(-c3ccc(NS(=O)(=O)c4cccc(Cl)c4Cl)cc3)nc3[nH]ncc23)C1` (racemic): 109 nM and under 1 nM.
Consider `Nc1nc(CNC(=O)c2cc(-c3ccc(NS(=O)(=O)c4cccc(Cl)c4Cl)cc3)nc3[nH]ncc23)cs1`, for which the values for the IC50 in data set [2] and in data set [3] were 2470 nM and 19 nM, respectively.
In the case of `Cc1n[nH]c2nc(-c3ccc(NS(=O)(=O)c4cc(Cl)ccc4F)cc3)nc(OC3CCCNC3)c12` (stereo not given), the IC50 in data set [2] and in data set [3] was 1 nM each time.
In turn, `Cc1n[nH]c2nc(-c3ccc(NS(=O)(=O)c4cc(Cl)ccc4F)cc3)nc(OC3CCN(C4CC4)CC3)c12` came in with an inhibition at 10 µM against hERG (KCNH2) [4] of 5%. This molecule also returned a CLH in data set [5] of 0.02 mL/h. Further, in data set [6], the chromatographic logD came out at 3.4. In addition, the remaining at 24 h in data set [7] came out at 100%. Also, the metabolised at 20 min in [8] came out at 4%; in [13], 11%; in data set [17], 19%. For the same molecule, the IC50 in data set [9] is 7 nM; at Cytochrome P450 3A4 [10] it was over 30000 nM; in [2], 4 nM; against Cytochrome P450 3A4 [18], over 30000 nM; in data set [3], 2 nM. Moreover, the results for the solubility in [11] and in data set [19] were under 1 µg/mL and 17 µg/mL (≈ 30.5 µM), respectively. At hERG (KCNH2) [12], the inhibition at 1 µM was determined as 24%. In addition, the Activity result in the data set on Salmonella typhimurium [14] and with Salmonella typhimurium [15] was “Non-Toxic” throughout. For the same molecule, the Papp at 2 h, 20 µM in [16] was 5 ×10⁻⁶ cm/s. The molecule further returned an Emax at CYP3A4 of 3%.
With `Cc1n[nH]c2nc(-c3ccc(NS(=O)(=O)c4cc(Cl)ccc4F)cc3)nc(OCCC(=O)N(C)C)c12`, the values for the IC50 in data set [2] and in data set [3] were 438 nM and 15 nM, respectively.
The matching figures for `Cc1n[nH]c2nc(-c3ccc(NS(=O)(=O)c4cc(Cl)ccc4F)cc3)nc(OC3CC(C)(C)N(C)C(C)(C)C3)c12`: 3 nM and 2 nM.
The corresponding values for `Cc1n[nH]c2nc(-c3ccc(NS(=O)(=O)c4cc(Cl)ccc4F)cc3)nc(OCC(CO)CO)c12` are 2 nM and 1 nM.
The corresponding values for `Cc1n[nH]c2nc(-c3ccc(NS(=O)(=O)c4cc(Cl)ccc4F)cc3)nc(OCC(F)(F)CN)c12` are 5 nM and 3 nM.
